From the supplement of paper PMC10307832

Legend:
Assay in all cases: relative viability (nuclei count vs DMSO), 5 days (fraction); higher = more cells survive
[1] = compound: CN[C@@H]1C[C@H]2O[C@@](C)([C@@H]1OC)n1c3ccccc3c3c4c(c5c6ccccc6n2c5c31)C(=O)NC4 [Staurosporine] + CS(=O)(=O)N1CCN(Cc2cc3nc(-c4cccc5[nH]ncc45)nc(N4CCOCC4)c3s2)CC1 [Pictilisib] (partner 1 µM)
How it was run: (§1)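 Dosing by pin tool came one day after lung cancer cell lines were seeded in 1536-well plates, using either one drug or a fixed anchor-drug dose plus five library-drug doses (not always all listed) in √10 steps. After 5 days, nuclei were counted on 4× images. Relative viability is treated-well nuclei count divided by vehicle-well nuclei count, and values are medians of duplicate plates.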

Sulindac + Pemetrexed = compound: CC1=C(CC(=O)O)c2cc(F)ccc2/C1=C\c1ccc([S+](C)[O-])cc1 [Sulindac] + Nc1nc2[nH]cc(CCc3ccc(C(=O)N[C@@H](CCC(=O)O)C(=O)O)cc3)c2c(=O)[nH]1 [Pemetrexed] (partner 0.2 µM)
How it was run: as §1

[2] = compound: O=c1[nH]cc(F)c(=O)[nH]1 [5-Fluorouracil] + C[C@]1(O)C[C@@H](c2nc(-c3ccc4ccc(-c5ccccc5)nc4c3)c3c(N)nccn32)C1 [Linsitinib] (partner 1 µM)
How it was run: as §1

[3] = compound: O=c1[nH]cc(F)c(=O)[nH]1 [5-Fluorouracil] + Nc1ncn([C@H]2C[C@H](O)[C@@H](CO)O2)c(=O)n1 [Decitabine] (partner 2 µM)
How it was run: as §1

Work on UMC-11 yielded a relative viability ([1]; first compound 0.005 µM) of 0.841, a relative viability ([1]; first compound 0.01581 µM) of 0.115 and a relative viability ([1]; first compound 0.05 µM) of 0.207. For the same cell line, the relative viability ([1]; first compound 0.1581 µM) was 0.101, the relative viability ([1]; first compound 0.5 µM) was 0.0718 and the relative viability (Sulindac + Pemetrexed; first compound 0.08 µM) was 0.853. For the same cell line, the relative viability (Sulindac + Pemetrexed; first compound 0.253 µM) was 0.808, the relative viability (Sulindac + Pemetrexed; first compound 0.8 µM) was 0.582 and the relative viability (Sulindac + Pemetrexed; first compound 2.53 µM) was 0.747. For the same cell line, the relative viability (Sulindac + Pemetrexed; first compound 8 µM) was 0.868, the relative viability ([2]; first compound 0.02 µM) was 0.969 and the relative viability ([2]; first compound 0.2 µM) was 0.674. It also gave a relative viability ([2]; first compound 0.6325 µM) of 0.512, a relative viability ([2]; first compound 2 µM) of 0.363 and a relative viability ([3]; first compound 0.02 µM) of 0.593. The relative viability ([3]; first compound 0.2 µM) was 0.565 and the relative viability ([3]; first compound 0.6325 µM) was 0.497.
